This note sets out measurements from patent publication US12122785B2, “Substituted pyridines, pyridazines, pyrimidines, and 1,2,4-triazines as TYK2 inhibitors” (Sudo Biosciences Limited, priority 2021, dated 2024).

Assay [1] concerns the target T1, TYK2 kinase domain (JH1) (Homo sapiens, UniProt P29597).
T1 construct: recombinant purified His or GST-tagged catalytic domain for each enzyme; made in house
T1 sequence (P29597 897-1176 limits assumed): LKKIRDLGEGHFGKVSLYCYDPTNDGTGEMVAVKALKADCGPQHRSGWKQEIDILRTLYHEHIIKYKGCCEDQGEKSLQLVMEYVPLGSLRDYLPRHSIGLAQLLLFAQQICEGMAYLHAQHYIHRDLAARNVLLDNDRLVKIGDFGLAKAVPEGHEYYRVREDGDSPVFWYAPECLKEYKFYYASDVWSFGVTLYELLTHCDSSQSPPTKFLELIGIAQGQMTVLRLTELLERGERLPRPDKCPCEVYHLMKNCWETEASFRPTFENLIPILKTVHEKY
Description: HTRF-based selectivity assay, TYK2 catalytic domain. Type of assay: biochemical. Conditions: 20 μM ATP. The protocol: (§1) Example B-2: HTRF-Based Selectivity Assay
(§2) The ability of compounds to inhibit the activity of JAK1, JAK2, JAK3 and TYK2 is measured using a recombinant purified His or GST-tagged catalytic domain for each enzyme (JAK1, JAK2 and TYK2 are generated in-house; JAK3 was purchased from Carna biosciences, Cat #08-046) in an HTRF format biochemical assay. The reactions employs a commercial peptide substrate from Cisbio (Cat #62TK0PEC). The basic assay protocol is as follows: first, 2.5 μL of diluted compounds (4×) in DMSO are dispensed into a 384-well Optiplate. Next, 2.5 μL of enzyme (final concentrations for enzymes are: TYK2—700 ng/mL, JAK1—80.6 ng/mL, JAK2—2.1 ng/mL and JAK3—171.8 ng/mL) is added and incubated at RT for 5-20 min. Finally, 5 μl of mixture of 2×ATP [Final concentration 20 μM for TYK2, 21.43 μM for JAK1, 14.7 μM for JAK2 and 2.12 μM for JAK3]+2× Substrate [Final concentration 217 nM for TYK2, 454.7 nM for JAK1, 200 nM for JAK2 and 257.4 nM for JAK3] is added to 384 well Optiplate. Composition of Kinase assay buffer used in the assay is as follows: HEPES 50 mM, EGTA 1 mM, MgCl2 10 mM, DTT 2 mM, Tween-20 0.01% and water. Then the plates are shaken and then incubated at 26.5° C. for 60 min.
A general note: In TR-FRET formats the signal depends on donor and acceptor labels being close together.

Assay [2] relates to TYK2 pseudokinase (JH2); IL-23-stimulated HEK-Blue IL-23 cells. Description: HEK-Blue IL-23 reporter assay (STAT3-inducible SEAP) for profiling TYK2 pseudokinase (JH2) inhibition. The following applies: 10 ng/mL human recombinant IL-23, SEAP readout, read-out: IL23 (TYK2 inhibitory activity, IC50). It is filed as cell-based. The protocol: (§3) Example B-1: HEK-Blue™ IL-23 and IFNα/β Reporter Assays for Profiling TYK2 Pseudokinase (JH2) Inhibition
(§4) HEK-Blue™ IL-23 and IFNα/β cells with a stably-integrated cytokine receptor and STAT3 or STAT1 express STAT-inducible secreted embryonic alkaline phosphatase (SEAP) reporter gene upon cytokine stimulation. These cells are plated in DMEM (Gibco) containing 10% heat-inactivated FBS (Gibco) and 100 U/mL PenStrep (Gibco) at 37° C. under 5% CO2 conditions for 20-22 hours. The cells are then pretreated with serially diluted test compounds for 60 min prior to stimulation with either 10 ng/mL human recombinant IL-23 (Miltenyl Biotech) or 1 ng/mL human recombinant IFNα (InvivoGen) for 22-24 hours for IL-23 or 16-18 h for IFNα. SEAP induction is measured using the QUANTI Blue™ Solution (InvivoGen) according to the manufacturer's instructions.

For assay [3], the target named is T2, JAK1 kinase domain (JH1) (Homo sapiens, UniProt P23458).
T2 construct: recombinant purified His or GST-tagged catalytic domain for each enzyme; made in house
T2 sequence (P23458 875-1153 limits assumed): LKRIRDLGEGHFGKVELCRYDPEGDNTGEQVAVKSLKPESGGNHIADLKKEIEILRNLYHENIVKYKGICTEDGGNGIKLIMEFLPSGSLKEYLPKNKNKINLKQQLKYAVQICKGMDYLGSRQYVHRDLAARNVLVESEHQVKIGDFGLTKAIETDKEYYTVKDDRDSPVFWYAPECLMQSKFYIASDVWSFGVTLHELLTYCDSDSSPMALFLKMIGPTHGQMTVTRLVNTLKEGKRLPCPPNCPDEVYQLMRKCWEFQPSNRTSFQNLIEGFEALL
Kind of assay: HTRF-based selectivity assay, JAK1 catalytic domain. Type of assay: biochemical. Conditions: 21.43 μM ATP, read-out: JAK-JHI (IC50). The protocol:
as §1, §2

Assay [4] concerns IFNγ-stimulated HEK-Blue IFNγ reporter cells. Description: HEK-Blue IFNγ reporter assay (STAT1-inducible SEAP) for determining selectivity. Type of assay: cell-based. The following applies: 50 ng/mL human recombinant IFNγ, 24 hours, read-out: IFN-γ SEAP selectivity assay IC50. The protocol: (§5) Example B-3: HEK-Blue™ IL-2 and IFNγ Reporter Assays for Determining Selectivity
(§6) HEK-Blue™ IL-2 and IFNγ reporter cells with a stably-integrated cytokine receptor and STAT5 or STAT1 express STAT-inducible secreted embryonic alkaline phosphatase (SEAP) reporter gene upon cytokine stimulation. These cells were plated in DMEM (Gibco) containing 10% heat-inactivated FBS (Gibco) and 100 U/mL PenStrep (Gibco) at 37° C. under 5% CO2 conditions for 20-22 hours. The cells were then pretreated with serially diluted test compounds for 60 min prior to stimulation with either 4 ng/mL human recombinant IL-2 (Miltenyl Biotech) or 50 ng/mL human recombinant IFNγ (InvivoGen) for 24 hours. SEAP induction was measured using the QUANTI-Blue™ Solution (InvivoGen) according to the manufacturer's instructions.
A general note: In a reporter assay the amount or activity of a reporter protein is the signal.

Assay [5] concerns the target T3, JAK2 kinase domain (JH1) (Homo sapiens, UniProt O60674).
T3 construct: recombinant purified His or GST-tagged catalytic domain for each enzyme; made in house
Description: HTRF-based selectivity assay, JAK2 catalytic domain. It is filed as biochemical. Conditions: 14.7 μM ATP. The protocol: as §1, §2

In assay [6] the test system is TYK2 pseudokinase (JH2); IFNα-stimulated HEK-Blue IFNα/β cells. Description: HEK-Blue IFNα/β reporter assay (STAT1-inducible SEAP) for profiling TYK2 pseudokinase (JH2) inhibition. It is filed as cell-based. The following applies: 1 ng/mL human recombinant IFNα, SEAP readout, read-out: IFNα (TYK2 inhibitory activity, IC50). On the procedure:
as §3, §4

The test system of assay [7] is IL-2-stimulated HEK-Blue IL-2 reporter cells. Kind of assay: HEK-Blue IL-2 reporter assay (STAT5-inducible SEAP) for determining selectivity. It is filed as cell-based. The following applies: 4 ng/mL human recombinant IL-2, 24 hours. The protocol: as §5, §6

T3 sequence (O60674 849-1124 limits assumed): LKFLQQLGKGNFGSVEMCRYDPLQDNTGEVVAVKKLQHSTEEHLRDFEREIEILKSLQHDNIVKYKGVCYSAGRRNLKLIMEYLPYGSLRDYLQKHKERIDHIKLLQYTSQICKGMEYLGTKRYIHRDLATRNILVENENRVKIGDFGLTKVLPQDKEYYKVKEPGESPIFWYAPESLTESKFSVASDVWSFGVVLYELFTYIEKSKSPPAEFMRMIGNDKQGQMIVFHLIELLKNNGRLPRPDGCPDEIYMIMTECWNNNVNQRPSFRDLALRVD

Broadly, the IC50 is the concentration at which inhibition is half-maximal. With `[2H]C([2H])([2H])NC(=O)c1cnc(NC(=O)NC)cc1Nc1cccc2c1N(C)Cc1cn(C)nc1-2` [Compound 25, 4-((2,5-dimethyl-4,5-dihydro-2H-pyrazolo[4,3-c]quinolin-6-yl)amino)-N-(methyl-d3)-6-(3-methylureido)nicotinamide], the IC50 is over 1000 nM in assay [1]; under 30 nM in assay [2]; over 1000 nM in assay [3]; over 1000 nM in assay [4]; over 1000 nM in assay [5]; under 30 nM in assay [6]. For the same compound, in assay [7], the IC50 was over 1000 nM.

Take `[2H]C([2H])([2H])NC(=O)c1cnc(NC(=O)C2CC2)cc1Nc1cccc2c1N(C)C([2H])([2H])c1cc(C)nn1-2` [Compound 57, 6-(cyclopropanecarboxamido)-4-((2,5-dimethyl-4,5-dihydropyrazolo[1,5-a]quinoxalin-6-yl-4,4-d2)amino)-N-(methyl-d3)nicotinamide]: the IC50 is under 30 nM in assay [2], 30 to 300 nM in assay [4], under 30 nM in assay [6] and over 1000 nM in assay [7].

As for `[2H]C([2H])([2H])NC(=O)c1nnc(NC(=O)C2CC2)cc1Nc1cccc2c1N(C)C([2H])([2H])c1ccnn1-2` [Compound 58, 6-(cyclopropanecarboxamido)-N-(methyl-d3)-4-((5-methyl-4,5-dihydropyrazolo[1,5-a]quinoxalin-6-yl-4,4-d2)amino)pyridazine-3-carboxamide], the IC50 in assay [2] was under 30 nM; in assay [4], 300 to 1000 nM; in assay [6], under 30 nM; in assay [7] it was over 1000 nM.

Turning to `[2H]C([2H])([2H])NC(=O)c1cnc(NC(=O)C2CC2)cc1Nc1cccc2c1N(C)C([2H])([2H])c1ccnn1-2` [Compound 59, 6-(cyclopropanecarboxamido)-N-(methyl-d3)-4-((5-methyl-4,5-dihydropyrazolo[1,5-a]quinoxalin-6-yl-4,4-d2)amino)nicotinamide], the IC50 in assay [2] was under 30 nM; in assay [4], 30 to 300 nM; in assay [6] it was under 30 nM; in assay [7], over 1000 nM.

Take `[2H]C([2H])([2H])NC(=O)c1cnc(N2CCN(C(C)C)C2=O)cc1Nc1cccc2c1N(C)C([2H])([2H])c1cn(C)nc1-2` [Compound 63, 4-((2,5-dimethyl-4,5-dihydro-2H-pyrazolo[4,3-c]quinolin-6-yl-4,4-d2)amino)-6-(3-isopropyl-2-oxoimidazolidin-1-yl)-N-(methyl-d3)nicotinamide]: the IC50 in assay [2] is under 30 nM; in assay [4], over 1000 nM; in assay [6], 30 to 300 nM; in assay [7] it was over 1000 nM.

With `[2H]C([2H])([2H])NC(=O)c1nnc(NC(=O)C2CC2)cc1Nc1nccc2c1N(C([2H])([2H])[2H])Cc1cn(C)nc1-2` [Compound 67, 6-(cyclopropanecarboxamido)-N-(methyl-d3)-4-((2-methyl-5-(methyl-d3)-4,5-dihydro-2H-pyrazolo[4,3-c][1,7]naphthyridin-6-yl)amino)pyridazine-3-carboxamide], the IC50 is over 1000 nM in assay [1]; under 30 nM in assay [2]; over 1000 nM in assay [3]; over 1000 nM in assay [5]; under 30 nM in assay [6].

With `[2H]C([2H])([2H])NC(=O)c1cnc(NC(=O)C2CC2)cc1Nc1nccc2c1N(C)Cc1cc(C)nn1-2` [Compound 71, 6-(cyclopropanecarboxamido)-4-((2,5-dimethyl-4,5-dihydropyrazolo[1,5-a]pyrido[3,4-e]pyrazin-6-yl)amino)-N-(methyl-d3)nicotinamide], the half-maximal inhibitory concentration (IC50) in assay [2] is under 30 nM; in assay [4], over 1000 nM; in assay [6], under 30 nM; in assay [7] it was over 1000 nM.

As for `[2H]C([2H])([2H])NC(=O)c1nnc(NC(=O)C2CC2)cc1Nc1nccc2c1N(C)C([2H])([2H])c1cc(C)nn1-2` [Compound 73, 6-(cyclopropanecarboxamido)-4-((2,5-dimethyl-4,5-dihydropyrazolo[1,5-a]pyrido[3,4-e]pyrazin-6-yl-4,4-d2)amino)-N-(methyl-d3)pyridazine-3-carboxamide], the IC50 is under 30 nM in assay [2], 30 to 300 nM in assay [4], under 30 nM in assay [6] and over 1000 nM in assay [7].

For the compound `[2H]C([2H])([2H])NC(=O)c1nnc(NC(=O)NC)cc1Nc1nccc2c1N(C)C([2H])([2H])c1cn(C)nc1-2` [Compound 74, 4-((2,5-dimethyl-4,5-dihydro-2H-pyrazolo[4,3-c][1,7]naphthyridin-6-yl-4,4-d2)amino)-N-(methyl-d3)-6-(3-methylureido)pyridazine-3-carboxamide], the IC50 is under 30 nM in assay [2], 30 to 300 nM in assay [4], under 30 nM in assay [6] and over 1000 nM in assay [7].

Regarding `[2H]C([2H])([2H])NC(=O)c1nnc(NC(=O)N(C)C)cc1Nc1nccc2c1N(C)C([2H])([2H])c1cn(C)nc1-2` [Compound 75, 4-((2,5-dimethyl-4,5-dihydro-2H-pyrazolo[4,3-c][1,7]naphthyridin-6-yl-4,4-d2)amino)-6-(3,3-dimethylureido)-N-(methyl-d3)pyridazine-3-carboxamide], the IC50 is under 30 nM in assay [2], over 1000 nM in assay [4], 30 to 300 nM in assay [6] and over 1000 nM in assay [7].

On to `[2H]C([2H])([2H])NC(=O)c1cnc(NC(=O)C2CC2)cc1Nc1nccc2c1N(C)C([2H])([2H])c1cc(C)nn1-2` [Compound 76, 6-(cyclopropanecarboxamido)-4-((2,5-dimethyl-4,5-dihydropyrazolo[1,5-a]pyrido[3,4-e]pyrazin-6-yl-4,4-d2)amino)-N-(methyl-d3)nicotinamide], for which the IC50 is under 30 nM in assay [2], 300 to 1000 nM in assay [4], under 30 nM in assay [6] and over 1000 nM in assay [7].

As for `[2H]C([2H])([2H])NC(=O)c1cnc(NC(=O)C2CC2)cc1Nc1nccc2c1N(C)C([2H])([2H])c1cn(C)nc1-2` [Compound 77, 6-(cyclopropanecarboxamido)-4-((2,5-dimethyl-4,5-dihydro-2H-pyrazolo[4,3-c][1,7]naphthyridin-6-yl-4,4-d2)amino)-N-(methyl-d3)nicotinamide], the IC50 in assay [2] was under 30 nM; in assay [4], 300 to 1000 nM; in assay [6] it was under 30 nM; in assay [7], over 1000 nM.

For `[2H]C([2H])([2H])NC(=O)c1nnc(NC(=O)NC)cc1Nc1nccc2c1N(C)Cc1cc(C)nn1-2` [Compound 79, 4-((2,5-dimethyl-4,5-dihydropyrazolo[1,5-a]pyrido[3,4-e]pyrazin-6-yl)amino)-N-(methyl-d3)-6-(3-methylureido)pyridazine-3-carboxamide], the IC50 in assay [2] is under 30 nM; in assay [4], over 1000 nM; in assay [6], 30 to 300 nM; in assay [7] it was over 1000 nM.
